Source: article PMC11946789, “Two Amino Acid Substitutions Improve the Pharmacological Profile of the Snake Venom Peptide Mambalgin” (Toxins, 2025)
Like-named read-outs stand apart in the source and are kept apart here. Bridges are numbered along the chain shown (N, C = ends). Where no end group is shown, it is not given here.

How the values were obtained:
[1] = tested on: ASIC; assay: TEVC recordings, ASIC1-containing channel not specified; assay type: cell-based, rat; details: channel and pH not given; for Hill coefficient: Hill equation fit
Procedure: (§1) Whole-cell ASIC currents were measured using the two-electrode voltage clamp (TEVC) method with a GeneClamp 500 amplifier (Axon Instruments, Union City, NJ, USA). The holding potential maintained at –50 mV. Glass microelectrodes (0.5–2.5 MΩ) were filled with 3 M KCl solution, and ND96 (pH 7.4) was used as the external bath solution. ASIC currents were activated by rapidly switching the external solution from ND96 to either ND96 containing 10 mM MOPS (pH 6.7) or ND96 containing 10 mM MES (pH 5.5). Solution exchange was controlled using a custom-built computer-driven valve system. Data were filtered at 10 Hz and digitized at 100 Hz using an L780M ADC (LCard, Moscow, Russia). Peptides Mamb and Mamb-AL were applied for 30 s at pH 7.4 prior to acid stimulation of the channels.
(§2) Electrophysiological and behavioral data were analyzed using OriginPro 8.6.0 (OriginLab, Washington, DC, USA). […] The rate of current decay was fitted using a single exponential decay function: F(x) = A*eˆ(−x/τdes) + A0, where A0 is the minimal current response and τdes is the decay constant. Statistical significance between the Mamb and Mamb-AL groups was determined using an unpaired t-test. Data are presented as mean ± SEM.

[2] = tested on: homomeric rat ASIC3 channels; assay: TEVC recordings, homomeric ASIC3; assay type: cell-based; details: pH stimulus; n = 5; ns vs control, paired t-test
Excerpt: Figure 4 The inhibitory effect of Mamb-AL on other ASIC1-containing channels exceeds that of Mamb. (A,C) Representative current traces showing the effects of various concentrations of Mamb (left panels) and Mamb-AL (right panels) on homomeric rat ASIC1b (rASIC1b) (A) and heteromeric rat ASIC1a/3 (rASIC1a/3) channels (C). Currents were evoked by a pH 5.5 stimulus following a conditioning pH of 7.4, with peptides applied for 30 s prior to the pH stimulus. (B) Dose–response curves for the inhibitory effects of Mamb and Mamb-AL on rASIC1b. Each data point represents measurements from 5 to 7 cells. (D) Bar graph quantifying the inhibitory effects of Mamb and Mamb-AL on rASIC1a/3, shown as a percentage of the corresponding control currents (n = 5). Data are presented as mean ± SEM; * p< 0.05, unpaired t-test. […] Data are shown as mean ± SEM; ns indicates no significant difference vs. control (dotted horizontal line), paired t-test. […]
(§3) Whole-cell ASIC currents were measured using the two-electrode voltage clamp (TEVC) method with a GeneClamp 500 amplifier (Axon Instruments, Union City, NJ, USA). […]
(§4) Electrophysiological and behavioral data were analyzed using OriginPro 8.6.0 (OriginLab, Washington, DC, USA). […] Statistical significance between the Mamb and Mamb-AL groups was determined using an unpaired t-test. […]

[3] = tested on: heteromeric rat ASIC1a/3 channels (rASIC1a/3); assay: TEVC recordings, heteromeric rASIC1a/3; assay type: cell-based; details: for inhibition of rASIC1a/3: 100 nM, pH 5.5 stimulus, conditioning pH 7.4, % of control currents, n = 5, p < 0.05 Mamb-AL vs Mamb, unpaired t-test
Excerpt: Figure 4 The inhibitory effect of Mamb-AL on other ASIC1-containing channels exceeds that of Mamb. (A,C) Representative current traces showing the effects of various concentrations of Mamb (left panels) and Mamb-AL (right panels) on homomeric rat ASIC1b (rASIC1b) (A) and heteromeric rat ASIC1a/3 (rASIC1a/3) channels (C). Currents were evoked by a pH 5.5 stimulus following a conditioning pH of 7.4, with peptides applied for 30 s prior to the pH stimulus. (B) Dose–response curves for the inhibitory effects of Mamb and Mamb-AL on rASIC1b. Each data point represents measurements from 5 to 7 cells. (D) Bar graph quantifying the inhibitory effects of Mamb and Mamb-AL on rASIC1a/3, shown as a percentage of the corresponding control currents (n = 5). Data are presented as mean ± SEM; * p< 0.05, unpaired t-test. […] Data are shown as mean ± SEM; ns indicates no significant difference vs. control (dotted horizontal line), paired t-test.
Female X.laevis frogs were anesthetized with 0.17% ethyl 3-amino-benzoate methane sulfonate (MS222). A small ovarian section was surgically removed via an abdominal incision and placed in ND96 medium (96 mM NaCl, 2 mM KCl, 1.8 mM CaCl2, 1 mM MgCl2, and 5 mM HEPES, pH 7.4, adjusted with NaOH). […] Each animal underwent surgeries at intervals of no less than three months. Connective tissue and follicular sheaths were removed by incubating ovarian tissue in calcium-free ND96 medium containing collagenase (1 mg/mL) for 2 h at 21 °C. Healthy, mature stage IV and V oocytes were selected and stored in ND96 medium. […]
as §3, §4

[4] = molecular target: T1, homomeric rASIC1a (rat ASIC1a) (Rattus norvegicus, UniProt P55926); assay: TEVC recordings, homomeric rASIC1a; assay type: cell-based; details: for increase in desensitization rate of rASIC1a: pH 5.5-induced currents, 1 µM peptide, decay constant τdes, single exponential fit, 8 to 17 cells; for IC50: peptide applied 30 s before activation, Xenopus laevis oocytes, mean ± S.E.M., n = 6, read-out: half-maximal inhibitory concentration (IC50); for Emax: pH stimulus 5.5, inhibition not complete, read-out: maximum effect (inhibition)
T1 construct: expressed in transfected cells; host or cells: Xenopus laevis oocytes, mRNA microinjected
T1 sequence (P55926 1-526): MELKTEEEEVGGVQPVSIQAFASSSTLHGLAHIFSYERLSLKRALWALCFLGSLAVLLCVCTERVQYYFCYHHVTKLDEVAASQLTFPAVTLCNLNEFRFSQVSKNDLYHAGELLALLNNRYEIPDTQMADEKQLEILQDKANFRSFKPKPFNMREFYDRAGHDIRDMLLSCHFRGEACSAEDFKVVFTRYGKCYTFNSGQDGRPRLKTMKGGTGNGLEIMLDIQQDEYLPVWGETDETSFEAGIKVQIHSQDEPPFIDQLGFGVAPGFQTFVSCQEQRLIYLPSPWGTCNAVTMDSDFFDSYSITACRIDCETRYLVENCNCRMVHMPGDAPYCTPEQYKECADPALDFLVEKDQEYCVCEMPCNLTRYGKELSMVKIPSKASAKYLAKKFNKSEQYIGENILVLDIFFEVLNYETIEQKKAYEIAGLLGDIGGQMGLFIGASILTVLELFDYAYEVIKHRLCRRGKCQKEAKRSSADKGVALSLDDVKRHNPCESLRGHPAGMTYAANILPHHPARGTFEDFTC
Procedure: The functional activity of Mamb-AL and its comparison with wild-type Mamb were assessed using two-electrode voltage clamp (TEVC) recordings in Xenopus laevis oocytes heterologously expressing rASIC1a.
Figure 3 The inhibitory effect of Mamb-AL on rASIC1a exceeds that of Mamb. (A,C) Representative current traces showing the effects of various concentrations of Mamb (left panels) and Mamb-AL (right panels) on rASIC1a at pH stimuli of 5.5 (A) and 6.7 (C). Currents were induced by pH stimuli after a conditioning pH of 7.4, with peptides applied for 30 s prior to channel activation. The holding potential (Vh) was set to −50 mV, and the interval between applications varied from 1 to 2 min. (B,D) Dose–response curves for the inhibitory effects of Mamb and Mamb-AL on rASIC1a at pH stimuli of 5.5 (B) and 6.7 (D). Each data point represents measurements from six cells. (E) Bar plot showing statistical analysis of IC50 values calculated from the dose–response fits for the peptides’ inhibitory effects on individual cells (n = 6). **** p< 0.001; one-way ANOVA followed by Dunnett’s post hoc test. (F) Statistical analysis of the effects of 1 µM peptide concentration on the decay constant (τdes) at a pH stimulus of 5.5. Each data point represents data from 8 to 17 cells. * p< 0.05, **** p< 0.001 compared with control, paired t-test; & p< 0.05 comparing Mamb and Mamb-AL, unpaired t-test. Data are presented as mean ± S.E.M.
Female X.laevis frogs were anesthetized with 0.17% ethyl 3-amino-benzoate methane sulfonate (MS222). A small ovarian section was surgically removed via an abdominal incision and placed in ND96 medium (96 mM NaCl, 2 mM KCl, 1.8 mM CaCl2, 1 mM MgCl2, and 5 mM HEPES, pH 7.4, adjusted with NaOH). […] Each animal underwent surgeries at intervals of no less than three months. Connective tissue and follicular sheaths were removed by incubating ovarian tissue in calcium-free ND96 medium containing collagenase (1 mg/mL) for 2 h at 21 °C. Healthy, mature stage IV and V oocytes were selected and stored in ND96 medium. PCi plasmids encoding rat ASIC1a, ASIC1b, or ASIC3 served as templates for synthesizing the corresponding messenger RNAs (mRNAs), which were then microinjected into oocytes (0.2–10 ng per oocyte) using a Nanolitre 2000 microinjection system (World Precision Instruments, Sarasota, FL, USA) 16–18 h after oocyte isolation. Injected oocytes were incubated in ND96 medium supplemented with penicillin and gentamicin (50 µg/mL each) at 18 °C for 2–3 days, followed by storage at 14 °C for up to 7 days.
as §1, §2

| Sequence | Hill coefficient [1] | maximum inhibition (in words) ([1]; compared with wild-type peptide) | effect on rat ASIC3 channels [2] | inhibition of rASIC1a/3 [3] [%] | increase in inhibition of heteromeric ASIC1a/3 channels ([3]; compared with Mamb) | greater inhibition of homomeric ASIC1a channels ([4]; compared with Mamb, pH not stated) | increase in desensitization rate of rASIC1a [4] [%] | Mamb-AL outperformed Mamb (inhibition of rASIC1a) ([4]; pH 6.7, relative to Mamb) | IC50 ([4]; pH stimulus 5.5, conditioning pH 7.4, Vh −50 mV) [nM] | Emax [4] [%] | complete inhibition ([4]; pH stimulus 6.7) [%] | IC50 ([4]; pH stimulus 6.7, conditioning pH 7.4, Vh −50 mV) [nM] |
| --- | --- | --- | --- | --- | --- | --- | --- | --- | --- | --- | --- | --- |
| LKCYQHGKVVTCHRDAKFCYHNTGLPFRNLKLILQGCSSSCSETENNKCCSTDRCNK (disulfide 3-19, 12-37, 41-49, 50-55 (inferred)) [Mamb-AL] | 1.4 ± 0.1 | unable to fully block channel activity, leading to a reduced maximum inhibition rate | neither wild-type Mamb nor Mamb-AL exhibited any detectable effects | 32 | two-fold increase | three-fold | 45 | more than threefold | 62 ± 9 | ~90 | 100 | 25 ± 3 |
| LKCFQHGKVVTCHRDMKFCYHNTGMPFRNLKLILQGCSSSCSETENNKCCSTDRCNK (disulfide 3-19, 12-37, 41-49, 50-55 (inferred)) [Mamb] | 1.54 ± 0.03 | – | neither wild-type Mamb nor Mamb-AL exhibited any detectable effects | 13 | – | – | 24 | – | – | ~90 | – | – |
